Results: paper PMC8125615 (Molecules, 2021)
Read-outs that look alike come from different tables or passages of the source.

Columns and labels:
[1] = biological target: SARS CoV-2 M^pro (Severe acute respiratory syndrome coronavirus 2, UniProt P0DTD1); assay: In vitro enzyme inhibition assay (SARS-CoV-2 main protease assay kit, fluorescence); type: biochemical
Method: GC376 was used as a reference standard inhibitor.
Briefly, 10 µL of test compounds of different concentrations were added into a 96-well plate followed by pipetting 30 µL of the diluted protease 15 µg/mL. The mixtures were incubated for 30 min at room temperature, and then 10 µL of the substrate was dissolved in the reaction buffer and added to reach a 50-µL final volume and 40-µM final concentration. The reaction mixture was then incubated for 4 h at 20 °C followed by measuring the produced fluorescence using a TECAN spark microplate-reading fluorimeter.

[2] = tested on: SARS CoV M^pro; details: cited from earlier work
[3] = SARS CoV-2 M^pro, fluorescence kit assay, GC376 as reference standard, read-out: IC50

| Compound | IC50 [1, 3] [µM] | IC50 [1] [µM] | IC50 [2] [µM] |
| --- | --- | --- | --- |
| C=C(C)[C@@H]1CC[C@]2(CO)CC[C@]3(C)[C@H](CC[C@@H]4[C@@]5(C)CC[C@H](O)C(C)(C)[C@@H]5CC[C@]43C)[C@@H]12 [betulin] | 89.7 |  |  |
| C=C(C)[C@@H]1CC[C@]2(C(=O)O)CC[C@]3(C)[C@H](CC[C@@H]4[C@@]5(C)CC[C@H](O)C(C)(C)[C@@H]5CC[C@]43C)[C@@H]12 [betulinic acid] |  | 14.5 ± 1.3 | 10 |
| CC1(C)CC[C@]2(C(=O)O)CC[C@]3(C)C(=CC[C@@H]4[C@@]5(C)C[C@@H](O)[C@H](O)C(C)(C)[C@@H]5CC[C@]43C)[C@@H]2C1 [maslinic acid] | 3.22 ± 0.26 |  |  |
| C[C@H]1[C@H](C)CC[C@]2(C(=O)O)CC[C@]3(C)C(=CC[C@@H]4[C@@]5(C)CC[C@H](O)C(C)(C)[C@@H]5CC[C@]43C)[C@H]12 [ursolic acid] | 12.6 ± 0.28 |  |  |
